Laboratory results from US8841508B2, “Non-human mammalian animal model for type 2 diabetes” (National University Corporation, priority 2009, dated 2014).

How the values were obtained:
[1] = tested on: KO mice (Cdkal1 knock-out mice, type 2 diabetes model); assay: Screening simulation: fasting and glucose-tolerance blood glucose level after Exendin-4 in KO mice; format: in vivo, mouse; conditions: intraperitoneal, 0.1 mg per kg twice a day, after 1 week and 2 weeks, ANOVA p=0.02
Protocol: (§1) To the KO mice used for the verification of periodical changes of blood glucose level, Exendin-4 which is an agonist of a glucagon-like peptide-1 receptor known as a therapeutic agent for type 2 diabetes was intraperitoneally administrated as a test substance. A degree of type 2 diabetes was then evaluated using the KO mice to simulate the screening of the preventive or therapeutic agent for type 2 diabetes caused by the Cdkal1 abnormality.
(§2) The procedures for evaluating the degree of type 2 diabetes consists of measuring the fasting blood glucose level and glucose-tolerance blood glucose level for KO mice and WT mice, comparing the blood glucose levels for both of the mice, and evaluating them. In this test, Exendin-4 was administered twice a day for 2 weeks at a rate of 0.1 mg per kg, of body weight.

WT mice (wild type mice) = assay: Screening simulation: fasting and glucose-tolerance blood glucose level after Exendin-4 in WT mice; format: in vivo, mouse; conditions: intraperitoneal, 0.1 mg per kg twice a day, after 1 week and 2 weeks, ANOVA p=0.02
Protocol: as §1, §2

Exendin-4
glucose tolerance (blood glucose level after glucose tolerance) [1]: significantly improved glucose tolerance | glucose tolerance (blood glucose level after glucose tolerance) (WT mice (wild type mice)): significantly improved glucose tolerance
